Structures can show the parent of a compound that is named as a salt. Where two headings read alike, the source gives them in different places.

For one experiment, the system named is A549 cell line. Description: Oxygen consumption rate (OCR) and extracellular acidification rate (ECAR) in A549 cells. In kind it is cell-based. Conditions: Homo sapiens, A549, 3 hrs, control group set at 0%, phenformin set at 100%. As to the method: A549 cell line (purchased from ATCC-American Type Culture Collection (ATCC)), a lung cancer cell line, is treated with the compounds and OCR and ECAR of the cells are measured and thereby those compounds which show an improved effect compared to phenformin are selected.
The cells are plated on an XF96 cell culture plate containing RPMI1640 medium at a concentration of 5×10^3 cells and cultured in 37° C., 5% CO2 conditions to allow them to be attached thereto.
After 24 hours, the cells are treated with the drug at a concentration of 10 μM for 2 hours, the existing medium is washed with a medium for XF analysis (15 mM D-glucose, 15 mM sodium pyruvate, 4 mM L-glutamine, pH 7.4) to remove the medium using a Prep station and treated again with the drugs, and cultured in 37° C., non-CO2 conditions in the Prep station for 1 hour. While culturing in the Prep station, a sensor cartridge is calibrated for 1 hour and added into a plate containing cells, and OCR and ECAR analyses are performed.
The measured values of OCR and ECAR of the compounds are calculated with reference to the measured values of OCR and ECAR of the control group which is set at 0% and the values of OCR and ECAR of phenformin, which was used as the reference drug, set at 100%, and those compounds which show an improved effect compared to those of phenformin are selected.
From the primarily-selected compounds, those compounds which show an improved effect are treated at various concentrations (0 μM, 0.5 μM, 1 μM, 5 μM, 10 μM, and 20 μM) and their reactivity according to concentration was obtained.

Another experiment concerns AMPKa [pT172]. Description: AMPKa activation [pT172] in MCF7 cell. It is filed as cell-based.
In the next experiment the test system is HCT116 cells. The experiment in a line: Inhibitory effect against cancer cell proliferation (MTT). Conditions: Homo sapiens, HCT-116; HCT116, MTT, 48 hours; read-out: IC50 (uM) @ HCT116. In kind it is cell-based, human. As to the method: The formazane crystals thus formed were dissolved using dimethyl sulfoxide (DMSO) and absorbance of the solution was measured at 560 nm. After culturing for 48 hours, […] synthesized in Examples was indicated as cell viability (%) according to each treated concentration.

In the case of `N=C(N)NC(=N)NCc1ccc(O)cc1F` [Example 146, N1-(2-fluoro-4-hydroxy)benzyl Biguanide Hydrochloride], the Emax at 10 µM with A549 cell line (read-out: ECAR (A549, 3 hrs)) was 28%; in the experiment with A549 cell line (read-out: OCR (A549, 3 hrs)), 109%.
`N=C(N)NC(=N)NCc1cccc(I)c1` [Example 150, N1-(3-iodo)benzyl Biguanide Hydrochloride]: the Emax at 10 µM in the experiment on A549 cell line (read-out: ECAR (A549, 3 hrs)) was 125%; in the experiment with A549 cell line (read-out: OCR (A549, 3 hrs)) it was 105%.
For `CN(C(=N)NC(=N)N1CCCC1)c1ccc(OC(F)(F)F)cc1` [Example 82, N1-pyrrolidin-N5-methyl-N5-(4-trifluoromethoxy)phenyl Biguanide Hydrochloride] the same measures were 6.9% and 7.7%.
On to `CC(C)NC(=N)NC(=N)NCc1cccnc1.Cl` [Example 6, N1-isopropyl-N5-1-(pyridin-3-yl)methyl Biguanide Hydrochloride], for which, in the experiment on AMPKa [pT172] (50 uM), the “AMPKa activation [pT172] (Unit/ml) @ MCF7 cell” value (from here on “AMPKa activation [pT172]”) was found to be 4.8 Unit/ml. For the same compound, the Emax at 10 µM in the experiment with A549 cell line (read-out: ECAR (A549, 3 hrs)) came to 9.3%; in the experiment with A549 cell line (read-out: OCR (A549, 3 hrs)), 16.7%.
With `CC1CC(=O)N=C(NC(=N)N)N1.Cl` (stereo not shown) [Example 164, Hydrochloride], the Emax at 10 µM is 9% in the experiment with A549 cell line (read-out: ECAR (A549, 3 hrs)) and -1% with A549 cell line (read-out: OCR (A549, 3 hrs)).
As to `N=C(N)NC(=N)NCc1ccccc1I` [Example 149, N1-(2-iodo)benzyl Biguanide Hydrochloride], the Emax at 10 µM with A549 cell line (read-out: ECAR (A549, 3 hrs)) is 36%; in the experiment on A549 cell line (read-out: OCR (A549, 3 hrs)), 20%.
On to `N=C(N)NC(=N)NCc1ccco1` [Example 144, N1-(furan-2-yl)methyl Biguanide Hydrochloride], for which the Emax at 10 µM with A549 cell line (read-out: ECAR (A549, 3 hrs)) amounted to 7%; with A549 cell line (read-out: OCR (A549, 3 hrs)), 47%.
Regarding `N=C(N)NC(=N)NCCCc1ccc(F)cc1` [Example 147, N1-(4-fluoro)phenylpropyl Biguanide Hydrochloride], the Emax at 10 µM in the experiment on A549 cell line (read-out: ECAR (A549, 3 hrs)) was found to be 126%; in the experiment with A549 cell line (read-out: OCR (A549, 3 hrs)), 74%.
For `C/N=C(/NC(=N)N1CCCC1)Nc1ccc(OC(F)(F)F)cc1` [Example 105, N1-(4-trifluoromethoxy)phenyl-N2-methyl-N5-pyrrolidine Biguanide Hydrochloride] the same measures were -25.5% and 25.1%.
On the same counts, the results for `N=C(N)N/C(=N/CCc1ccccc1)NCCc1cccs1` [Example 103, N1 (2-thiophen-2-yl)ethyl-N2-phenethyl Biguanide Hydrochloride] are -43% and 36%.
On to `C/N=C(/NC(=N)N1CCCC1)N(C)c1ccc(OC(F)(F)F)cc1` [Example 106, N1-methyl-N1-(4-trifluoromethoxy)phenyl-N2-methyl-N5-pyrrolidine Biguanide Hydrochloride], for which the Emax at 10 µM was -7.5% with A549 cell line (read-out: ECAR (A549, 3 hrs)) and -6.6% in the experiment with A549 cell line (read-out: OCR (A549, 3 hrs)).
On the same counts, the results for `N=C(N)N/C(=N/C1CCCC1)NCc1ccc2c(c1)OCO2` [Example 107, N1-(benzo[d][1,3]dioxol-5-yl)methyl-N2-cyclopentyl Biguanide Hydrochloride] are -8.9% and -4.4%.
For `N=C(NC(=N)N1CCCC1)Nc1c(F)cccc1F` [Example 80, N1-pyrrolidin-N5-(2,6-difluoro)phenyl Biguanide Hydrochloride] the same measures were 1% and 3%.
With `CN(C)C(=N)NC(=N)N(C)c1ccc(OC(F)(F)F)cc1` [Example 85, N1,N1-dimethyl-N5-methyl-N5-(4-trifluoromethoxy)phenyl Biguanide Hydrochloride], the Emax at 10 µM was 31% in the experiment with A549 cell line (read-out: ECAR (A549, 3 hrs)) and -6% with A549 cell line (read-out: OCR (A549, 3 hrs)).
In the case of `COc1ccc(CCCNC(=N)NC(=N)N)cc1` [Example 148, N1-(4-methoxy)phenylpropyl Biguanide Hydrochloride], the Emax at 10 µM with A549 cell line (read-out: ECAR (A549, 3 hrs)) is 160%; in the experiment with A549 cell line (read-out: OCR (A549, 3 hrs)) it was 1%.
On the same counts, the results for `N=C(N)N/C(=N/CCc1ccc2c(c1)OCO2)NCCc1cccs1` [Example 104, N1-2-thiophen-2-)ethyl-N2-2-benzo[d][1,3]dioxol-5-yl)ethyl Biguanide Hydrochloride] are -8.3% and 31.3%.
In the case of `CN1CCN(C(=N)NC(=N)NCc2ccc(Cl)cc2)CC1.Cl` [Example 31, N1-(4-methyl)piperazin-N5-(4-chloro)benzyl Biguanide Hydrochloride], the IC50 (commonly the concentration that inhibits the measured activity by half) in the experiment with HCT116 cells is over 100 µM. Moreover, the figures for the “AMPKa activation [pT172]” value in the experiment with AMPKa [pT172] (5 uM), with AMPKa [pT172] (10 uM) and in the experiment on AMPKa [pT172] (50 uM) were 2.5 Unit/ml, 3.6 Unit/ml and 6.1 Unit/ml, respectively.
For `Cl.N=C(NC(=N)Nc1cccc(C(F)(F)F)c1)Nc1cccnc1` [Example 41, N1-3-pyridin-N5-(3-trifluoromethyl)phenyl Biguanide Hydrochloride] the same measures were over 100 µM, 8.3 Unit/ml, 10.2 Unit/ml and 14.4 Unit/ml.
For the compound `Cl.N=C(N)N/C(=N/CCc1ccccc1)Nc1ccccc1` [Example 94, N1-phenyl-N2-phenethyl Biguanide Hydrochloride], in the experiment on HCT116 cells, the IC50 is 105 µM. The “AMPKa activation [pT172]” value with AMPKa [pT172] (50 uM) is listed as 9.0 Unit/ml.
`Cl.N=C(NCCc1ccc(Cl)cc1)NC(=N)N1CCCCC1` [Example 13, N1-piperidin-N5-4-chloro)phenethyl Biguanide Hydrochloride]: the IC50 with HCT116 cells was over 100 µM. Further, the Emax at 10 µM in the experiment on A549 cell line (read-out: ECAR (A549, 3 hrs)) is 61%; with A549 cell line (read-out: OCR (A549, 3 hrs)), -20%.
Regarding `CC1CC(C)CN(C(=N)NC(=N)Nc2ccc(OC(F)(F)F)cc2)C1.Cl` (stereo not shown) [Example 62, N1-(3,5-dimethyl)piperidin-N5-(4-trifluoromethoxy)phenyl Biguanide Hydrochloride], the half-inhibitory concentration (IC50) in the experiment on HCT116 cells is 2.8 µM. Besides, the “AMPKa activation [pT172]” value in the experiment on AMPKa [pT172] (5 uM) is 8.5 Unit/ml; with AMPKa [pT172] (10 uM), 26.6 Unit/ml; with AMPKa [pT172] (50 uM), “cell death”.
On the same counts, the results for `CN1CCN(C(=N)NC(=N)Nc2ccc(F)cc2)CC1.Cl` [Example 33, N1-(4-methyl)piperazin-N5-(4-fluoro)phenyl Biguanide Hydrochloride] are over 100 µM, 3.8 Unit/ml, 3.3 Unit/ml and 4.3 Unit/ml.
Regarding `Cl.N=C(N)NC(=N)NCc1ccc2c(c1)OCO2` [Example 112, N1-(benzo[d][1,3]dioxol-5-yl)methyl Biguanide Hydrochloride], in the experiment on HCT116 cells, the IC50 is over 100 µM. In addition, in the experiment on AMPKa [pT172] (50 uM), the “AMPKa activation [pT172]” value is on record as 10.6 Unit/ml.
For `C/N=C(\NCCc1ccc2c(c1)OCO2)NC(=N)N.Cl` [Example 102, N1-2-(benzo[d][1,3]dioxol-5-yl)ethyl-N2-methyl Biguanide Hydrochloride], the IC50 with HCT116 cells was over 100 µM. Besides, the “AMPKa activation [pT172]” value with AMPKa [pT172] (5 uM) stood at 4.8 Unit/ml; in the experiment with AMPKa [pT172] (10 uM), 2.8 Unit/ml; in the experiment on AMPKa [pT172] (50 uM) it was 6.8 Unit/ml.
As for `Cl.N=C(N)NC(=N)NCc1ccc(Cl)cc1` [Example 129, N1-(4-chloro)benzyl Biguanide Hydrochloride], the concentration for half-maximal inhibition (IC50) in the experiment with HCT116 cells is over 100 µM. Also, the “AMPKa activation [pT172]” value in the experiment on AMPKa [pT172] (5 uM) was 9.2 Unit/ml; in the experiment with AMPKa [pT172] (10 uM), 7.0 Unit/ml; in the experiment on AMPKa [pT172] (50 uM), 11.4 Unit/ml.

(Values after US11572341B2, “Biguanide compound and use thereof” (ImmunoMet Therapeutics Inc., priority 2014, dated 2023).)
